Measured values taken from patent US5290926A, “Isolated DNA Encoding plant histidinol dehydrogenase” (Ciba-Geigy Corporation, priority 1990, dated 1994).
Like-named read-outs stand apart in the source and are kept apart here.

T1: histidinol dehydrogenase from cabbage (Brassica oleracea var. capitata, UniProt P24226)
T1 construct: Spring cabbage heads are homogenized using a kitchen mixer; from tissue; host or cells: mature spring cabbage heads
T1 sequence (P24226 32-469): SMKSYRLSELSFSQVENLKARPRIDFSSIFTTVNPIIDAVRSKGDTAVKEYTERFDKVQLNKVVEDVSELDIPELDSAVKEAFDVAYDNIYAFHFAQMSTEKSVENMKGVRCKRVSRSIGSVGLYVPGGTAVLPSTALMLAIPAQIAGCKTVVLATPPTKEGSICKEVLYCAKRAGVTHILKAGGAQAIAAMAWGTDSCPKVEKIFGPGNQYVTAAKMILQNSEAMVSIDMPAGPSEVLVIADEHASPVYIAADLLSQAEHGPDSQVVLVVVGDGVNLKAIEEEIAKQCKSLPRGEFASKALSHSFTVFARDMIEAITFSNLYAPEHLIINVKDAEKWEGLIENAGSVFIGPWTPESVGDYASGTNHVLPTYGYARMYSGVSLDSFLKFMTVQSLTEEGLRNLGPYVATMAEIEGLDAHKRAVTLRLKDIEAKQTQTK


Key:
[1] = target: T1, histidinol dehydrogenase from cabbage; assay: Histidinol dehydrogenase enzyme assay (spectrophotometric, NAD+ reduction at 340 nm); format: biochemical; conditions: for Relative Activity: metal ion 0.5 mM, activity after 3 min reaction time, None = 100
Protocol: (§1) […]
(§2) The enzyme activity is assayed spectrophotometrically by measuring the increase in absorbance at 340 nm due to the reduction of NAD+in a Hitachi U-3120 spectrophotometer. The reaction mixture contained 150 mM Gly/NaOH buffer, pH9.2, 0.5 mM, MnCl2, 2 mM NAD +, 5 mM histidinol, and 2-5 mU of enzyme sample in total volume of 0.5 ml. The reaction is started with the addition of histidinol, and incubated at 30° C. A reference sample containing water instead of histidinol is always run. One unit of enzyme catalyzing the formation of […] of NADH per min under the assay conditions.

[2] = test system: histidinol dehydrogenase from S. typhimurium; conditions: cited from earlier work
[3] = test system: histidinol dehydrogenase from wheat germ; conditions: cited from earlier work
[4] = substrate: N[C@H](CO)Cc1c[nH]cn1; assay: purified protein, by the assay type; conditions: other: standard assay conditions; pH 9.2; 30.0 °C
[5] = substrate: NC(=O)c1ccc[n+]([C@@H]2O[C@H](COP(=O)([O-])OP(=O)(O)OC[C@H]3O[C@@H](n4cnc5c(N)ncnc54)[C@H](O)[C@@H]3O)[C@@H](O)[C@H]2O)c1; assay: Histidinol dehydrogenase enzyme assay (spectrophotometric, NAD+ reduction at 340 nm); format: biochemical, cabbage (Brassica oleracea); conditions: other: standard assay conditions; pH 9.2; 30.0 °C
Protocol: as §1, §2

[6] = reaction buffer 150 mM Gly/NaOH, pH9.2

| Molecule | Relative Activity [1] | influence of divalent metal ion on the enzyme reaction (in words) [1, 6] | also measured |
| --- | --- | --- | --- |
| [Ba+2] [Ba^2+] | 65% | caused inhibition |  |
| [Ca+2] [Ca^2+] | 36% | caused inhibition |  |
| [Cu+2] [Cu^2+] | 24% | caused inhibition |  |
| N[C@H](CO)Cc1c[nH]cn1 [L-histidinol] |  |  | Km ([2]; read-out: Km of the pure enzyme from S. typhimurium for L-histidinol, pure enzyme): 16 µM; Km ([3]; read-out: Km of the partially purified enzyme from wheat germ for L-histidinol): 8.8 µM |
| [Mg+2] [Mg^2+] | 54% | caused inhibition |  |
| [Mn+2] [Mn^2+] | 126% | stimulation of the enzyme activity | stimulation of the reaction compared to control without any divalent metal ion [1, 6]: 26%; effect of metal ion on the reaction catalyzed by the S. typhimurium enzyme (in words) [2]: stimulated |
| NC(=O)c1ccc[n+]([C@@H]2O[C@H](COP(=O)([O-])OP(=O)(O)OC[C@H]3O[C@@H](n4cnc5c(N)ncnc54)[C@H](O)[C@@H]3O)[C@@H](O)[C@H]2O)c1 [NAD+] |  |  | Km ([2]; read-out: Km of the enzyme from S. typhimurium for NAD+): 1000 µM; Km ([3]; partially purified enzyme, read-out: Km of the enzyme from wheat germ for NAD+): 140 µM |
| [Ni+2] [Ni^2+] | 46% | caused inhibition |  |
| [Zn+2] [Zn^2+] | 34% | caused inhibition |  |
| histidinol dehydrogenase from cabbage (Brassica oleracea var. capitata) (protein, Spring cabbage heads are homogenized using a kitchen mixer; from tissue; host or cells: mature spring cabbage heads) SMKSYRLSELSFSQVENLKARPRIDFSSIFTTVNPIIDAVRSKGDTAVKEYTERFDKVQLNKVVEDVSELDIPELDSAVKEAFDVAYDNIYAFHFAQMSTEKSVENMKGVRCKRVSRSIGSVGLYVPGGTAVLPSTALMLAIPAQIAGCKTVVLATPPTKEGSICKEVLYCAKRAGVTHILKAGGAQAIAAMAWGTDSCPKVEKIFGPGNQYVTAAKMILQNSEAMVSIDMPAGPSEVLVIADEHASPVYIAADLLSQAEHGPDSQVVLVVVGDGVNLKAIEEEIAKQCKSLPRGEFASKALSHSFTVFARDMIEAITFSNLYAPEHLIINVKDAEKWEGLIENAGSVFIGPWTPESVGDYASGTNHVLPTYGYARMYSGVSLDSFLKFMTVQSLTEEGLRNLGPYVATMAEIEGLDAHKRAVTLRLKDIEAKQTQTK |  |  | Km [4]: 15.5 µM; Km [5]: 42 µM |
